Data on 17 compounds can be found in patent US20210261539A1, “COMPOUND HAVING BET INHIBITORY ACTIVITY AND PREPARATION METHOD AND USE THEREFOR” (Shanghai Haihe Pharmaceutical Co., Ltd., priority 2018, published 2021).

The structures appear in SMILES notation.

In assay [1] the target is T1, BRD4 BD1 (Homo sapiens, UniProt O60885).
T1 construct: Protein BRD4 BD1 used in the assay was purchased from Active Motif (cat. 31380); purchased Active Motif 31380
The assay is described as follows: HTRF in vitro enzyme activity assay, inhibition of BRD4 BD1 binding to acetylated H4 peptide. Particulars: IC50 values of the compounds against BRD4 BD1 binding; class symbols A/B/C. An outline of the steps: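 Recombinant human BRD4 BD1 (30 nM final) incubated with compound and biotinylated tetra-acetylated H4(1-21) peptide, 30 min at 37 °C; 5-point 1:5 dilution series, 0.1% DMSO final. HTRF read after 3 h at RT with SA-XL665 and Eu(K)-labelled antibody; IC50 derived.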
On the technique in general: In TR-FRET formats the signal depends on donor and acceptor labels being close together.

Assay [2] relates to human NMC-derived xenograft. Particulars: human NMC-derived xenograft mouse model; cited from earlier work. A general note: In xenograft studies the graft and the host belong to different species.

As usually defined, the IC50 is the concentration needed to halve the response being measured. A lower IC50 goes with greater potency in that assay. In assay [1], `CC1C(=O)N(C)c2ccc(-n3c(=O)c4ccccc4n3-c3ccc(C#N)cc3)nc2N1C1CC1` (centres unmarked) [Example A27-P1, 6-(1-(4-cyanophenyl)-3-oxo-1,3-dihydro-2H-indazol-2-yl)-4-cyclopropyl-1,3-dimethyl-3,4-dihydropyrido [2,3-b]pyrazin-2(1H)-one] returned an IC50 not above 10 nM. On to `CC1C(=O)N(C)c2ccc(N3C(=O)c4ccccc4C3c3ccc(F)cn3)nc2N1C1CC1` (single isomer, unassigned) [Example A68-P3, 4-cyclopropyl-6-(1-(5-fluoropyridin-2-yl)-3-oxoisoindolin-2-yl)-1,3-dimethyl-3,4-dihydropyrido[2,3-b]pyrazin-2(1H)-one], for which the IC50 in assay [1] was not above 10 nM. For `CC1C(=O)N(C)c2ccc(N3C(=O)c4ccccc4C3c3ccc(Cl)cc3)nc2N1CCO` (racemic) [Example A34, 6-(1-(4-chlorophenyl)-3-oxoisoindolin-2-yl)-4-(2-hydroxyethyl)-1,3-dimethyl-3,4-dihydropyrido [2,3-b]pyrazin-2(1H)-one], the concentration for half-maximal inhibition (IC50) in assay [1] was not above 10 nM. For `C[C@@H]1C(=O)N(C)c2ccc(N3C(=O)CCC3c3ccccc3)nc2N1C` (single isomer, unassigned) [Example A4-P2], the IC50 in assay [1] was not above 10 nM. As for `CC1C(=O)N(C)c2ccc(N3C(=O)c4ccccc4C3c3cccnc3)nc2N1C1(C)CC1` (centres unmarked) [Example A47-P4, 1,3-dimethyl-4-(1-methylcyclopropyl)-6-(1-oxo-3-(pyridin-3-yl)isoindolin-2-yl)-3,4-dihydropyrido [2,3-b]pyrazin-2(1H)-one], the IC50 in assay [1] is not above 10 nM.

`C[C@@H]1C(=O)N(C)c2ccc(N3C(=O)c4cccnc4C3(O)c3ccccc3)nc2N1C` (single isomer, unassigned) [Example A76-P1]: the IC50 in assay [1] was not above 10 nM. In assay [1], `CC1C(=O)N(C)c2cnc(N3C(=O)c4ccccc4C3c3ccc(C(F)(F)F)cc3)nc2N1C1CC1` (single isomer, unassigned) [Example A93-P4, 8-cyclopropyl-5,7-dimethyl-2-(1-oxo-3-(4-(trifluoromethyl)phenyl)isoindolin-2-yl)-7,8-dihydropteridin-6(5H)-one] came in with an IC50 not above 10 nM. As for `Cc1sc2c(c1C)C(c1ccc(Cl)cc1)=N[C@@H](CC(=O)OC(C)(C)C)c1nnc(C)n1-2` [JQ1], the “tumor squamous differentiation and growth” value in assay [2] was “inhibited tumor squamous differentiation and growth and caused regression”.

`CCN1C(=O)C(C)N(C2CC2)c2nc(N3C(=O)c4ccccc4C3c3cccnc3)ccc21` (centres unmarked) [Example A49-P4, 4-cyclopropyl-1-ethyl-3-methyl-6-(1-oxo-3-(pyridin-3-yl)isoindolin-2-yl)-3,4-dihydropyrido [2,3-b]pyrazin-2-(1H)-one]: in assay [1], the IC50 was not above 10 nM. In assay [1], `CC1C(=O)N(C)c2ccc(N3C(=O)CCC3c3cccnc3)nc2N1C1CC1` (single isomer, unassigned) [Example A14-P1, 4-cyclopropyl-1,3-dimethyl-6-(2-oxo-5-(pyridin-3-yl)pyrrolidin-1-yl)-3,4-dihydropyrido[2,3-b]pyrazin-2(1H)-one] showed an IC50 not above 10 nM. In turn, `C[C@H]1Oc2nc(N3C(=O)c4ccccc4C3c3ccccn3)ccc2N(C)C1=O` (single isomer, unassigned) [Example A121-P1] showed an IC50 in assay [1] not above 10 nM. Compound `C[C@@H]1C(=O)N(C)c2cnc(N3C(=O)c4cc(F)ccc4C3c3cccnc3)nc2N1C1CC1` (stereo partly drawn) [Example A95-P4, (7R)-8-cyclopropyl-2-(5-fluoro-3-oxo-1-(pyridin-3-yl)isoindolin-2-yl)-5,7 dimethyl-7,8-dihydropteridin-6(5H)-one] registered a half-inhibitory concentration (IC50) in assay [1] not above 10 nM. On the same count and under the same terms, next, `CC1C(=O)N(C)c2ccc(N3C(=O)c4ccccc4C3(O)c3ccc(Cl)cc3)nc2N1C1CC1` (racemic) [Example A30, 6-(1-(4-chlorophenyl)-1-hydroxy-3-oxoisoindolin-2-yl)-4-cyclopropyl-1,3-dimethyl-3,4-dihydropyrido [3,2-b]pyrazin-2(H)-one]: 10 to 100 nM.

In assay [1], `CC1C(=O)N(C)c2cnc(N3C(=O)c4ccccc4C3c3cccnc3)cc2N1C1CC1` (single isomer, unassigned) [Example A70-P3, 1-cyclopropyl-2,4-dimethyl-7-(1-oxo-3-(pyridin-3-yl)isoindolin-2-yl)-1,4-dihydropyrido[3,4-b]pyrazin-3(2H)-one] showed an IC50 not above 10 nM. Turning to `CC1C(=O)N(C)c2ccc(N3C(=O)CCN3c3ccc(Cl)cc3)nc2N1C1CC1` (single isomer, unassigned) [Example A10-P2, 6-(2-(4-chlorophenyl)-5-oxopyrazolidin-1-yl)-4-cyclopropyl-1,3-dimethyl-3,4-dihydropyrido[2,3-b]pyrazin-2(1H)-one], the IC50 in assay [1] is 10 to 100 nM. Same read-out and setting: next, `C[C@@H]1C(=O)N(C)c2ccc(N3C(=O)c4c(C(=O)NC5CC5)cccc4C3c3ccccc3)nc2N1C` (stereo partly drawn) [Example A87-P4, N-cyclopropyl-3-oxo-1-phenyl-2-((R)-1,3,4-trimethyl-2-oxo-1,2,3,4-tetrahydropyrido[2,3-b]pyrazin-6-yl)isoindoline-4-carboxamide]: not above 10 nM; `CC1C(=O)N(C)c2ccc(N3C(=O)N(C)CC3c3ccccc3)nc2N1C1CC1` (single isomer, unassigned) [Example A19-P3, 4-cyclopropyl-1,3-dimethyl-6-(3-methyl-2-oxo-5-phenylimidazolidin-1-yl)-3,4-dihydropyrido[2,3-b]pyrazin-2(1H)-one]: not above 10 nM.
